Laboratory results published in PubChem BioAssay (NCI).
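Interpolation was linear, between the two tested concentrations surrounding the appropriate level; five concentrations were tested over 48 hours in 96-well plates. TGI marks complete inhibition of growth.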

What was measured:
Assay in all cases: NCI-60 cell line screen, 48 h
[1] = system: 786-0 renal
[2] = system: A498 renal
[3] = system: COLO 205 colon
[4] = system: NCI-H460 lung
[5] = system: OVCAR-5 ovarian
[6] = system: OVCAR-8 ovarian
[7] = system: SF-268 CNS
[8] = system: SK-MEL-28 melanoma
[9] = system: SK-OV-3 ovarian
[10] = system: SR leukemia
[11] = system: SW-620 colon
[12] = system: UACC-257 melanoma
[13] = system: UACC-62 melanoma
[14] = system: HCT-15 colon
[15] = system: LOX IMVI melanoma
[16] = system: SNB-75 CNS
[17] = system: DU-145 prostate
[18] = system: MDA-MB-231 breast
[19] = system: MDA-MB-435
[20] = system: NCI/ADR-RES ovarian

Work on `COC(=O)c1ccccc1NC(=O)C(=O)CC(=O)CC(c1ccccc1)c1c(O)c2ccccc2oc1=O` (centres undefined) yielded a TGI [1] of over 100 µM, a TGI [2] of over 100 µM and a TGI [3] of over 100 µM. The TGI [4] was over 100 µM, the TGI [5] was over 100 µM and the TGI [6] was over 100 µM. For the same compound, the TGI [7] was over 100 µM, the TGI [8] was over 100 µM and the TGI [9] was over 100 µM. The TGI [10] was over 100 µM, the TGI [11] was over 100 µM and the TGI [12] was over 100 µM. For the same compound, the TGI [13] was over 100 µM.

`CCOC(=O)c1[nH]c(CN(C)Cc2[nH]c(C(=O)OCC)c(C)c2C(=O)OCc2ccccc2)c(C(=O)OCc2ccccc2)c1C` showed a TGI [1] of 36.2 µM, a TGI [2] of 34.9 µM and a TGI [3] of over 100 µM. The TGI [14] was over 100 µM, the TGI [15] was over 100 µM and the TGI [4] was 62.2 µM. It also gave a TGI [5] of 44.8 µM, a TGI [6] of over 100 µM and a TGI [7] of over 100 µM. For the same compound, the TGI [8] was over 100 µM, the TGI [16] was 19.3 µM and the TGI [10] was over 100 µM. The TGI [11] was over 100 µM, the TGI [12] was over 100 µM and the TGI [13] was 85.3 µM.

`O=C1CC(c2ccc(Cl)cc2)C2(C(=O)NC(=O)NC2=O)C(c2ccc(Cl)cc2)C1` (centres undefined) gave a TGI [1] of over 75 µM, a TGI [3] of 65.1 µM and a TGI [17] of over 75 µM. For the same compound, the TGI [14] was over 75 µM, the TGI [15] was over 75 µM and the TGI [18] was 34.8 µM. It also gave a TGI [19] of 43.8 µM, a TGI [4] of over 75 µM and a TGI [20] of over 75 µM. The TGI [5] was over 75 µM, the TGI [6] was over 75 µM and the TGI [7] was over 75 µM. It also gave a TGI [8] of 37 µM, a TGI [16] of over 75 µM and a TGI [11] of 67.4 µM. The TGI [12] was over 75 µM and the TGI [13] was over 75 µM.

For `Cn1c(=O)cc(NCCc2ccccc2)[nH]c1=O`, the TGI [1] was over 100 µM, the TGI [2] was over 100 µM and the TGI [3] was over 100 µM. For the same compound, the TGI [17] was over 100 µM, the TGI [14] was over 100 µM and the TGI [15] was over 100 µM. For the same compound, the TGI [18] was 50 µM, the TGI [4] was over 100 µM and the TGI [20] was 98 µM. The TGI [5] was over 100 µM, the TGI [6] was over 100 µM and the TGI [7] was over 100 µM. The TGI [8] was over 100 µM, the TGI [9] was over 100 µM and the TGI [16] was over 100 µM. For the same compound, the TGI [11] was over 100 µM, the TGI [12] was over 100 µM and the TGI [13] was over 100 µM.

`Cn1nc2ccc3nccc(N(CCO)CCO)c3c2n1` showed a TGI [1] of over 100 µM, a TGI [2] of over 100 µM and a TGI [3] of over 100 µM. The TGI [14] was over 100 µM, the TGI [15] was over 100 µM and the TGI [4] was over 100 µM. The TGI [5] was over 100 µM, the TGI [6] was over 100 µM and the TGI [7] was over 100 µM. It also gave a TGI [8] of over 100 µM, a TGI [9] of over 100 µM and a TGI [16] of over 100 µM. The TGI [10] was over 100 µM, the TGI [11] was over 100 µM and the TGI [12] was over 100 µM. The TGI [13] was over 100 µM.

`CC(C)(Oc1ccc2c(=O)cc(-c3ccccc3)oc2c1)C(=O)Nc1c(Cl)cccc1Cl` showed a TGI [1] of over 100 µM, a TGI [2] of over 100 µM and a TGI [14] of over 100 µM. The TGI [15] was over 100 µM, the TGI [4] was over 100 µM and the TGI [5] was over 100 µM. It also gave a TGI [6] of over 100 µM, a TGI [7] of over 100 µM and a TGI [8] of over 100 µM. For the same compound, the TGI [9] was over 100 µM, the TGI [10] was over 100 µM and the TGI [11] was over 100 µM. For the same compound, the TGI [12] was over 100 µM and the TGI [13] was over 100 µM.

Work on `COC(=O)CCc1cccnc1/C=N/O` yielded a TGI [1] of over 100 µM, a TGI [2] of over 100 µM and a TGI [3] of over 100 µM. The TGI [14] was over 100 µM, the TGI [15] was over 100 µM and the TGI [4] was over 100 µM. The TGI [5] was over 100 µM, the TGI [6] was over 100 µM and the TGI [7] was over 100 µM. The TGI [8] was over 100 µM, the TGI [9] was over 100 µM and the TGI [16] was over 100 µM. For the same compound, the TGI [10] was over 100 µM, the TGI [11] was over 100 µM and the TGI [12] was over 100 µM. It also gave a TGI [13] of over 100 µM.
